Source: patent US7790885B2, “Process for preparing phenoxypyridine derivatives” (Eisai R&D Management Co., Ltd., priority 2006, dated 2010)

Columns and labels:
[1] = tested on: Human gastric cancer cells (MKN-45); test: Inhibitory activity against the proliferation of human gastric cancer cells (MKN-45); format: cell-based; conditions: 72 h, read-out: IC50 (concentration necessary to inhibit the cell proliferation by 50%), MKN-45 cells, 1% FBS-containing RPMI1640, 3 days, Cell Counting Kit-8
Protocol: Human gastric cancer cells (MKN-45) were suspended in a 1% FBS-containing RPMI1640 medium (purchased from Sigma). The cell suspension (1×10^4 cells/ml) was added in a 96-well plate for cell culture (purchased from NUNC, Production No. 167008) at 0.1 ml/well, and then cultured in a 5% CO2 incubator (37° C.) overnight. After the culture, each well was supplied with 0.1 ml of a test substance diluted with a 1% FBS-containing RPMI1640 medium, followed by culturing in a 5% CO2 incubator (37° C.) for 3 days. After the culture, each well was supplied with 10 μl of Cell Counting Kit-8 (purchased from DOJINDO, Production No. 343-07623), followed by incubation in a 5% CO2 incubator (37° C.) for about 1.5 hrs. After the incubation, using the Plate Reader MTP-500 (Corona Electric), the absorbance of each well was determined at a measurement wavelength of 450 nm and a reference wavelength of 660 nm.

HGFR [2] = biological target: T1, HGFR (Homo sapiens, UniProt P08581); test: Inhibitory activity against HGFR tyrosine kinase activity (HTRF); format: biochemical; set-up: His6-HGFR, the HGFR cytoplasmic domain fused with six histidine at the N terminus; made in house; host or cells: Sf9 insect cells (baculovirus, pFastBac-HT); conditions: His6-HGFR cytoplasmic domain, biotin-poly(GT) substrate, ATP, 30° C. for 10 min
Excerpt: The DNA fragment was isolated from the human placental cDNA library (purchased from Clontech) by PCR (TaKaRa Ex Taq™ Kit, purchased from TaKaRa) using two kinds of primers (SEQ ID NO: 1,5′-[…]-3′ and SEQ ID NO: 2,5′-[…]-3′, purchased from Invitrogen). The DNA fragment was cloned into a baculovirus transplace vector (pFastBac™-HT (purchased from GIBCO BRL)) to produce a recombinant construct. […] EGFR was purchased from Sigma (Production No. E-2645).
To the suspension of Sf9 cells (3×10^8 cells) in SF-900II medium (purchased from Invitrogen) containing 2% FBS was added a solution of HGFR transfected baculovirus above (4 ml), followed by a shaking culture at 27° C. for 48 hrs. The cells infected with the HGFR transfected baculovirus were centrifuged at 1,000 rpm, 4° C. for 5 min to remove the supernatant. The precipitated infected cells were suspended in 80 ml of ice-cold PBS, and centrifuged at 1,000 rpm, 4° C. for 5 min to remove the supernatant. The precipitated infected cells were suspended in 40 ml of ice-cold Lysis Buffer (50 mM Tris-HCl (pH 8.5), 5 mM 2-mercaptoethanol, 100 mM KCl, 1 mM PMSF and 1% (v/v) NP-40). The suspension was centrifuged at 12,000 rpm, 4° C. for 30 min to provide a supernatant.
The supernatant was loaded onto an Ni-NTA agarose column (3 ml, purchased from Qiagen) equilibrated with 30 ml of Buffer A (20 mM Tris-HCl (pH 8.5), 5 mM 2-mercaptoethanol, 500 mM KCl, 20 mM imidazole and 10% (v/v) glycerol). The column was washed with 30 ml of Buffer A, 6 ml of Buffer B (20 mM Tris-HCl (pH 8.5), 5 mM 2-mercaptoethanol, 1 M KCl, and 10% (v/v) glycerol) and 6 ml of Buffer A in this order. Then, the column was eluted with 6 ml of Buffer C (20 mM Tris-HCl (pH 8.5), 5 mM 2-mercaptoethanol, 100 mM KCl, 100 mM imidazole, and 10% (v/v) glycerol) to provide a fraction. The fraction was entrapped in a dialysis membrane (purchased from Spectrum Laboratories), dialyzed at 4° C. overnight with 1 L of dialysis buffer (20 mM Tris-HCl (pH 7.5), 10% (v/v) glycerol, 1 mM dithiothreitol, 0.1 mM Na3VO4 and 0.1 mM EGTA), and stored at −80° C. until used. […] The VEGFR2 cytoplasmic domain, the FGFR1 cytoplasmic domain, and the PDGFRβ cytoplasmic domain were fused with six histidine at the N terminus by the similar method to produce respective recombinant proteins (His6-VEGFR2, His6-FGFR1, and His6-PDGFRβ).
The tyrosine-phosphorylated biotin-poly(GT) was detected using the Homogenous Time-Resolved Fluorescence (HTRF) method (Analytical Biochemistry, 269, 94-104, 1999).
Target sequence in this assay (P08581 956-1390 limits assumed): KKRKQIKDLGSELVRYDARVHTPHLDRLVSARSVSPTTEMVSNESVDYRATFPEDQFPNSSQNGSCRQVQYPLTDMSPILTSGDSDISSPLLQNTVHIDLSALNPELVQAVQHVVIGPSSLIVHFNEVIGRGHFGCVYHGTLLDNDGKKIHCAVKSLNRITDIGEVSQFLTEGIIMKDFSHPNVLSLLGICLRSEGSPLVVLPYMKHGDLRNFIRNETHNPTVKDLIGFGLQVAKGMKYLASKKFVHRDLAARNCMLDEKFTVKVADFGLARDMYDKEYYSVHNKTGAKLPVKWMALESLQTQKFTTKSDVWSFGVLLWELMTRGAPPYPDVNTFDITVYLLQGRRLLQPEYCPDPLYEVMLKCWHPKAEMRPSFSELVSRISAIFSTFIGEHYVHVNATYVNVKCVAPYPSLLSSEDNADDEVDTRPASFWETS

HGFR [3] = biological target: T1, HGFR; test: Inhibitory activity against the HGFR autophosphorylation using ELISA; format: cell-based; set-up: endogenous in cells; host or cells: MKN-45 human gastric cancer cells; conditions: MKN-45 cells, test substance 1 hr, cell extract
Protocol: Human gastric cancer cells (MKN-45) were suspended in a 1% FBS-containing RPMI1640 medium (purchased from Sigma). […] After the culture, from each well was removed the supernatant, followed by adding 0.05 ml of a 1% FBS-containing RPMI1640 medium. Then, the well was supplied with 0.05 ml of the test substance dissolved in dimethyl sulfoxide (diluted with a 1% FBS-containing RPMI1640 medium), followed by culturing in a 5% CO2 incubator (37° C.) for 1 hr. From each well was removed the supernatant, and each well was washed with 150 μl of PBS, followed by adding 100 μl of a lysis buffer (50 mM Hepes (pH 7.4), 150 mM NaCl, 10% (v/v) glycerol, 1% Triton X-100, 1.5 mM MgCl2, 1 mM EDTA (pH 8.0), 100 mM NaF, 1 mM PMSF, 10 μg/ml Aprotinin, 50 μg/ml Leupeptin, 1 μg/ml Pepstatin A and 1 mM Na3VO4). The plate was shaken at 4° C. for 1 hr to prepare the cell extract.
To a 96-well plate for ELISA (purchased from COSTAR, Production No. 3369) was added 50 μl of 60 mM bicarbonate buffer (pH 9.6) containing 50 μg/ml of an anti-phosphotyrosine antibody (PY20, purchased from Transduction Laboratory, Production No. P-11120). The plate was incubated at 4° C. overnight.
Each well of the plate prepared in 2. was washed three times with 200 μl of PBS, and supplied with 150 μl of 3% BSA/PBS, followed by incubating at room temperature for 2 hrs. Each well was washed three times with 200 μl of PBS, and supplied with 50 μl of the above cell extract, followed by incubating at 4° C. overnight. After the incubation, each well was washed three times with 250 μl of a washing solution (0.1% BSA, 20 mM Tris-HCl (pH 7.6), 137 mM NaCl, and 0.05% Tween-20), and supplied with 70 μl of anti-HGFR antibody (h-Met(C-12), purchased from Santa Cruz, Production No. sc-10) 2,000-fold diluted with a reaction solution (1% BSA, 20 mM Tris-HCl (pH 7.6), 137 mM NaCl and 0.05% Tween-20), followed by incubating at room temperature for 1 hr. The well was washed three times with 250 μl of the washing solution, and supplied with 70 μl of peroxidase-labelled anti-rabbit IgG antibody (purchased from Cell Signaling, Production No. 7074) 2,000-fold diluted with the reaction solution, followed by incubating at room temperature for 1 hr. […] Each well was supplied with 70 μl of 1 M phosphoric acid, and using the Plate Reader MTP-500 (Corona Electric), the absorbance of the well was instantly determined at a measurement wavelength of 450 nm. While defining the absorbance of a well supplied with the cell extract having no test substance as 100% HGFR autophosphorylation activity, and the absorbance of a well supplied with 50 μl of the lysis buffer as 0% HGFR autophosphorylation activity, the HGFR autophosphorylation activity (%) was calculated for each well.
Target sequence in this assay (P08581 25-1390): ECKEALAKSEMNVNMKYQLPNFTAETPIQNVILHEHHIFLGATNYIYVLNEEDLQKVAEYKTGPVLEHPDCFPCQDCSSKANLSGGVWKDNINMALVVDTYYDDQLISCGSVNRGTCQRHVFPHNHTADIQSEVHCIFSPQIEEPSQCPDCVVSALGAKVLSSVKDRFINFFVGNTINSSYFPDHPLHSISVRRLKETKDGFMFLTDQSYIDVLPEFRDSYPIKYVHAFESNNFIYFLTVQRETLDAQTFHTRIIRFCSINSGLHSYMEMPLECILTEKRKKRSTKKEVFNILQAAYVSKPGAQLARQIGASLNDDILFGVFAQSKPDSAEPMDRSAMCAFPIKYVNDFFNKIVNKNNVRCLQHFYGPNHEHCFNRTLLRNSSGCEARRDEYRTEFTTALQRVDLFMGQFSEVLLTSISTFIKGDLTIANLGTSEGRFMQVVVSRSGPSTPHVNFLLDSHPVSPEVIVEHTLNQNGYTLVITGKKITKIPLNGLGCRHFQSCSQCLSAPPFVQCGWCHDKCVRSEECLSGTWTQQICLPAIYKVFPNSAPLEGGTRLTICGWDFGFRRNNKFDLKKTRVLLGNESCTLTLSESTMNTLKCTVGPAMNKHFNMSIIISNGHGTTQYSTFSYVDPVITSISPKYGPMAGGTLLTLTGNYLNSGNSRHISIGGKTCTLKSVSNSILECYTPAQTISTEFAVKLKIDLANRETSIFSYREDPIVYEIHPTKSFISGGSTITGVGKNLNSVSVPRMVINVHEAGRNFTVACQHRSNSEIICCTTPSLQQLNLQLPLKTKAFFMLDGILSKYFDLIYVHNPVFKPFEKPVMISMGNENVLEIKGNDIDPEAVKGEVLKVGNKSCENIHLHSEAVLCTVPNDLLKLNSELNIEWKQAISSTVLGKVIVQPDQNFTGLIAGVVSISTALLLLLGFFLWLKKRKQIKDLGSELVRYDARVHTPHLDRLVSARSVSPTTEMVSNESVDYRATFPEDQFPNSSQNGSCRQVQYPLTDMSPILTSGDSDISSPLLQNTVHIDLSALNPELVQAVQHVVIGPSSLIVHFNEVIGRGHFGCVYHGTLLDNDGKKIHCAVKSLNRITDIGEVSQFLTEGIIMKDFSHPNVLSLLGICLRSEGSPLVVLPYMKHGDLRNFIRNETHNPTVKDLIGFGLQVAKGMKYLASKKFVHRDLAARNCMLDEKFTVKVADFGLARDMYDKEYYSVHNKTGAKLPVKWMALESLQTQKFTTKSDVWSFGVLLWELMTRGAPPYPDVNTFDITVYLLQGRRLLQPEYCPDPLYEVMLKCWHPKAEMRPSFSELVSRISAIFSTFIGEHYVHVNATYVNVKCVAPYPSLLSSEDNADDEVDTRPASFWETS

SMILES | IC50 [1] [nM] | IC50 (HGFR [2]) [nM] | IC50 (HGFR [3]) [nM]
O=C(Nc1cc(Oc2cc(F)c(NC(=O)C3(C(=O)Nc4ccc(F)cc4)CC3)cc2F)ccn1)N1CC(O)C1 [Example 16, N-{2,5-Difluoro-4-[(2-{[(3-hydroxyazetidin-1-yl)carbonyl]amino}pyridin-4-yl)oxy]phenyl}-N′-(4-fluorophenyl)cyclopropane-1,1-dicarboxamide] | 5 | 4 | 8.4
CN1CCC(N(C)C(=O)Nc2cc(Oc3cc(F)c(NC(=O)C4(C(=O)Nc5ccc(F)cc5)CC4)cc3F)ccn2)CC1 [Example 19] | 4.9 | 49 | 11
O=C(Nc1cc(Oc2cc(F)c(NC(=O)C3(C(=O)Nc4ccc(F)cc4)CC3)cc2F)ccn1)N1CC[C@H](O)C1 [Example 22, N-{2,5-Difluoro-4-[(2-{[((S)-3-hydroxypyrrolidin-1-yl)carbonyl]amino}pyridin-4-yl)oxy]phenyl}-N′-(4-fluorophenyl)cyclopropane-1,1-dicarboxamide] | 2.4 | 16 | 4.5

Next, values leading:

IC50 [1] [nM] | IC50 (HGFR [2]) [nM] | IC50 (HGFR [3]) [nM] | SMILES
17 | – | – | CN1CCN(C2CCN(C(=O)Nc3cc(Oc4ccc(NC(=O)C5(C(=O)Nc6ccc(F)cc6)CC5)c(F)c4)ccn3)CC2)CC1 [Example 9, N-(2-Fluoro-4-{[2-({[4-(4-methylpiperazin-1-yl)piperidin-1-yl]carbonyl}amino)pyridin-4-yl]oxy}phenyl)-N′-(4-fluorophenyl)cyclopropane-1,1-dicarboxamide]
2.2 | 10 | 3.4 | O=C(Nc1cc(Oc2cc(F)c(NC(=O)C3(C(=O)Nc4ccc(F)cc4)CC3)cc2F)ccn1)N1CC[C@@H](O)C1 [Example 25, N-{2,5-Difluoro-4-[(2-{[((R)-3-hydroxypyrrolidin-1-yl)carbonyl]amino}pyridin-4-yl)oxy]phenyl}-N′-(4-fluorophenyl)cyclopropane-1,1-dicarboxamide]
